Reference: PMC6194350, “Catalytic Performance of a Class III Old Yellow Enzyme and Its Cysteine Variants” (Frontiers in Microbiology, 2018)
Blank lines part the entries; values can stand above or below the molecule they belong to.

Key:
Assay type in all cases: biochemical
[1] = target: T1, OYERo2a (WT) (Rhodococcus opacus, UniProt A0A1B1KA86); assay: steady-state kinetics, NADPH consumption at […] nm; settings: 50 mM phosphate pH 7.1, 25°C
T1 construct: gene O4328_33150; FMN 1:1; dimer by gel filtration; single Cys25

[2] = target: T2, OYERo2a (WT) (Rhodococcus opacus, UniProt A0A1B1KA86, C25S, form not given); assay: steady-state kinetics, NADPH consumption at […] nm; settings: 50 mM phosphate pH 7.1, 25°C
T2 construct: gene O4328_33150; FMN 1:1; dimer by gel filtration; single Cys25

[3] = target: T3, OYERo2a (WT) (Rhodococcus opacus, UniProt A0A1B1KA86, C25A, form not given); assay: steady-state kinetics, BNAH consumption at […] nm; settings: electron donor; 1 mM N-methylmaleimide, 50 mM phosphate pH 7.1, 25°C
T3 construct: gene O4328_33150; FMN 1:1; dimer by gel filtration; single Cys25

[4] = target: T2, OYERo2a (WT); assay: steady-state kinetics, BNAH consumption at […] nm; settings: electron donor; 1 mM N-methylmaleimide, 50 mM phosphate pH 7.1, 25°C
[5] = target: T1, OYERo2a (WT); assay: steady-state kinetics, BNAH consumption at […] nm; settings: electron donor; 1 mM N-methylmaleimide, 50 mM phosphate pH 7.1, 25°C
[6] = target: T4, OYERo2a (WT) (Rhodococcus opacus, UniProt A0A1B1KA86, C25G, form not given); assay: steady-state kinetics, BNAH consumption at […] nm; settings: electron donor; 1 mM N-methylmaleimide, 50 mM phosphate pH 7.1, 25°C
T4 construct: gene O4328_33150; FMN 1:1; dimer by gel filtration; single Cys25

[7] = target: T4, OYERo2a (WT); assay: steady-state kinetics, NADPH consumption at […] nm; settings: 50 mM phosphate pH 7.1, 25°C
[8] = target: T3, OYERo2a (WT); assay: steady-state kinetics, NADPH consumption at […] nm; settings: 50 mM phosphate pH 7.1, 25°C
[9] = target: T1, OYERo2a (WT); assay: residual activity after pre-incubation; settings: covalent (Cys25); 10 mM, 120 min, 50 mM phosphate pH 7.1, 4°C, dark, oxidized enzyme

T3 sequence (A0A1B1KA86 entry or part of it C25A, form open): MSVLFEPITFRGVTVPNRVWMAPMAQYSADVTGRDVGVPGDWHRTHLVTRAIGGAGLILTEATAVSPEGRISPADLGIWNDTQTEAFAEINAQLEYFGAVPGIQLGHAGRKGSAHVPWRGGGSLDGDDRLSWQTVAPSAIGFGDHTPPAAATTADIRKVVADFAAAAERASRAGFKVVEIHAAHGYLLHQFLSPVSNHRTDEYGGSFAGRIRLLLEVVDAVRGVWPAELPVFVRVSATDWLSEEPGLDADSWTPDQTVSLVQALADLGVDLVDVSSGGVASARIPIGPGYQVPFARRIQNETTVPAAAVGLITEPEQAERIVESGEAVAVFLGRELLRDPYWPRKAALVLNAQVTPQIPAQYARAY
T1 sequence (A0A1B1KA86 entry or part of it): as the sequence (A0A1B1KA86 entry or part of it C25A, form open) above, with A25C counted along it
T2 sequence (A0A1B1KA86 entry or part of it C25S, form open): as the sequence (A0A1B1KA86 entry or part of it C25A, form open) above, with A25S counted along it
T4 sequence (A0A1B1KA86 entry or part of it C25G, form open): as the sequence (A0A1B1KA86 entry or part of it C25A, form open) above, with A25G counted along it

Km ([1]; 180 μM NADPH, read-out: WT): 3500 µM | Km ([2]; 180 μM NADPH, read-out: C25S): 8900 µM
SMILES: O=C1C=CCCC1 [2-cyclohexen-1-one]

Km [3]: 230 ± 17.8 µM | Km [4]: 239 ± 24.3 µM | Km [5]: 169 ± 12.4 µM | Km [6]: 517 ± 45 µM
SMILES: NC(=O)C1=CN(Cc2ccccc2)C=CC1 [BNAH]

Km ([7]; 180 μM NADPH, read-out: C25G): 94.4 µM | Km ([1]; 180 μM NADPH, read-out: WT): 9.6 µM | Km ([2]; 180 μM NADPH, read-out: C25S): 30.4 µM | Km ([8]; 180 μM NADPH, read-out: C25A): 9.1 µM
SMILES: CN1C(=O)C=CC1=O [N-methylmaleimide]
relative activity [9]: while the OYERo2a became almost completely inactivated

Km ([7]; electron donor, 1 mM N-methylmaleimide, read-out: C25G / NADPH): 55.2 ± 2.3 µM | Km ([1]; electron donor, 1 mM N-methylmaleimide, read-out: WT / NADPH): 34.8 ± 2 µM | Km ([2]; electron donor, 1 mM N-methylmaleimide, read-out: C25S / NADPH): 76.9 ± 4.1 µM | Km ([8]; electron donor, 1 mM N-methylmaleimide, read-out: C25A / NADPH): 121 ± 8.7 µM
SMILES: NC(=O)C1=CN([C@@H]2O[C@H](COP(=O)(O)OP(=O)(O)OC[C@H]3O[C@@H](n4cnc5c(N)ncnc54)[C@H](OP(=O)(O)O)[C@@H]3O)[C@@H](O)[C@H]2O)C=CC1 [NADPH]
